ChEMBL document CHEMBL1201862, “PubChem BioAssay data set” (2004)
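Protocol summary: plate cells (96-well), add compound at 5 concentrations, incubate 48 h, interpolate endpoints linearly. At the GI50, growth is halved.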 Calls of active or inactive are those of the source. No stated cut-off is given here; in the data, active = GI50 up to about 1.1 µM and inactive = higher.

What was measured:
Test in all cases: NCI anticancer screen, dose series, 48 h
[1] = tested on: MCF7
[2] = tested on: U-251
[3] = tested on: SF-539
[4] = tested on: RPMI-8226
[5] = tested on: NCI-H522
[6] = tested on: XF498
[7] = tested on: DU-145
[8] = tested on: HOP-92
[9] = tested on: M19-MEL
[10] = tested on: NCI-H460
[11] = tested on: A498
[12] = tested on: IGROV-1
[13] = tested on: OVCAR-3
[14] = tested on: UACC-257
[15] = tested on: HOP-62
[16] = tested on: T47D
[17] = tested on: SK-MEL-5
[18] = tested on: DMS-114
[19] = tested on: COLO 205
[20] = tested on: SN12C
[21] = tested on: HT-29
[22] = tested on: SW-620
[23] = tested on: UACC-62
[24] = tested on: SF-268
[25] = tested on: LXFL 529
[26] = tested on: SF-295
[27] = tested on: UO-31
[28] = tested on: NCI-H23
[29] = tested on: HL-60
[30] = tested on: MOLT-4
[31] = tested on: SK-MEL-2
[32] = tested on: HCT-116
[33] = tested on: HOP-18
[34] = tested on: DMS-273
[35] = tested on: CCRF-CEM
[36] = tested on: MDA-MB-435
[37] = tested on: A549
[38] = tested on: RXF 631
[39] = tested on: SNB-75
[40] = tested on: SK-MEL-28
[41] = tested on: KM12
[42] = tested on: EKVX
[43] = tested on: K562
[44] = tested on: DLD-1
[45] = tested on: ACHN
[46] = tested on: SNB-78
[47] = tested on: SR
[48] = tested on: NCI/ADR-RES
[49] = tested on: OVCAR-5
[50] = tested on: MDA-N
[51] = tested on: BT-549
[52] = tested on: M14
[53] = tested on: Hs-578T
[54] = tested on: LOX IMVI
[55] = tested on: RXF 393
[56] = tested on: SK-OV-3
[57] = tested on: OVCAR-4
[58] = tested on: KM-20L2
[59] = tested on: SNB-19
[60] = tested on: TK-10
[61] = tested on: HCT-15
[62] = tested on: Malme-3M
[63] = tested on: MDA-MB-231
[64] = tested on: OVCAR-8
[65] = tested on: NCI-H226
[66] = tested on: HCC 2998
[67] = tested on: PC-3
[68] = tested on: CAKI-1
[69] = tested on: 786-0

With `COc1ccccc1/C=C1\CCC(CN2CCOCC2)C1=O` (centres undefined) the GI50 [1] was 5.14 µM (inactive), the GI50 [2] was 18.7 µM (inactive) and the GI50 [3] was 15.2 µM (inactive). The GI50 [4] was 1.32 µM (inactive), the GI50 [5] was 1.77 µM (inactive) and the GI50 [6] was 16.4 µM (inactive). The GI50 [7] was 17.3 µM (inactive), the GI50 [8] was 18.4 µM (inactive) and the GI50 [9] was 6.7 µM (inactive). For the same compound, the GI50 [10] was 18.2 µM (inactive), the GI50 [11] was 18.2 µM (inactive) and the GI50 [12] was 12.5 µM (inactive). For the same compound, the GI50 [13] was 5.57 µM (inactive), the GI50 [14] was 11.6 µM (inactive) and the GI50 [15] was 25.5 µM (inactive). The GI50 [16] was 1.84 µM (inactive), the GI50 [17] was 15 µM (inactive) and the GI50 [18] was 16 µM (inactive). The GI50 [19] was 4.47 µM (inactive), the GI50 [20] was 7.5 µM (inactive) and the GI50 [21] was 11 µM (inactive). The GI50 [22] was 4.16 µM (inactive), the GI50 [23] was 16.4 µM (inactive) and the GI50 [24] was 16 µM (inactive). The GI50 [25] was 3.28 µM (inactive), the GI50 [26] was 19.2 µM (inactive) and the GI50 [27] was 16.6 µM (inactive). For the same compound, the GI50 [28] was 20.3 µM (inactive), the GI50 [29] was 2.12 µM (inactive) and the GI50 [30] was 2.32 µM (inactive). The GI50 [31] was 15.7 µM (inactive), the GI50 [32] was 6.92 µM (inactive) and the GI50 [33] was 17.9 µM (inactive). The GI50 [34] was 13.6 µM (inactive), the GI50 [35] was 2.56 µM (inactive) and the GI50 [36] was 7.13 µM (inactive). For the same compound, the GI50 [37] was 21.9 µM (inactive), the GI50 [38] was 11.9 µM (inactive) and the GI50 [39] was 20.2 µM (inactive). For the same compound, the GI50 [40] was 15.5 µM (inactive), the GI50 [41] was 3.71 µM (inactive) and the GI50 [42] was 11.2 µM (inactive). The GI50 [43] was 2.81 µM (inactive), the GI50 [44] was 3.84 µM (inactive) and the GI50 [45] was 16.1 µM (inactive). For the same compound, the GI50 [46] was 20 µM (inactive), the GI50 [47] was 1.74 µM (inactive) and the GI50 [48] was 8.95 µM (inactive). The GI50 [49] was 18.4 µM (inactive), the GI50 [50] was 13.8 µM (inactive) and the GI50 [51] was 12.6 µM (inactive). The GI50 [52] was 6.15 µM (inactive), the GI50 [53] was 10.8 µM (inactive) and the GI50 [54] was 6.52 µM (inactive). For the same compound, the GI50 [55] was 16.8 µM (inactive), the GI50 [56] was > 43.7 µM (inactive) and the GI50 [57] was 16.8 µM (inactive). The GI50 [58] was 16.6 µM (inactive), the GI50 [59] was 9.55 µM (inactive) and the GI50 [60] was 3.49 µM (inactive). The GI50 [61] was 4.24 µM, the GI50 [62] was 10.2 µM (inactive) and the GI50 [63] was 3.68 µM (inactive). For the same compound, the GI50 [64] was 5.43 µM (inactive), the GI50 [65] was 16.9 µM (inactive) and the GI50 [66] was 14.9 µM (inactive). The GI50 [67] was 15.2 µM (inactive), the GI50 [68] was 17.3 µM (inactive) and the GI50 [69] was 3.02 µM (inactive).
